Where “and” joins values, the source holds several entries; their conditions need not be identical. Identical values can stand only once.
Columns and labels:
[1] = tested on: iron; assay: Iron clearance in the non iron-overloaded, bile duct-cannulated rodent model; assay type: in vivo, Sprague-Dawley rats
Method: Briefly, male Sprague-Dawley rats averaging 450 g were housed in Nalgene plastic metabolic cages during the experimental period and given free access to water. The animals were anesthetized using sodium pentobarbital (55 mg/kg) administered intraperitoneally. The bile duct was cannulated using 22-gauge polyethylene tubing. The cannula was inserted into the duct about 1 cm from the duodenum and tied snugly in place. After threading through the shoulder, the cannula was passed from the rat to the swivel inside a metal torque-transmitting tether, which was attached to a rodent jacket around the animal's chest. The cannula was directed from the rat to a Gilson microfraction collector (Middleton, Wis.) by a fluid swivel mounted above the metabolic cage. Bile samples were collected at 3 hour intervals for 24 hours. The urine sample was taken at 24 hours and handling was as previously described. (Bergeron, R. J., et al., J. Med. Chem. 34:2072-2078 (1991).
(§1) The iron chelators were solubilized in 40% Cremophor RH-40/water (v/v) and given orally and subcutaneously to the rats at the doses shown in Table 4. In the primates, DFO was dissolved in sterile H2O at a concentration of 50 or 100 mg/mL and given orally or subcutaneously at a volume of 1 ml/kg. The desferrithiocin analogues were solubilized in 40% Cremophor RH-40/water (v/v) and given orally to the monkeys at the doses shown in Table 4. However, the desferrithiocin analogues were administered subcutaneously as either a suspension in distilled H2O or as their sodium salts in solution as indicated in Table 4.
(§2) Iron clearance studies were carried out both in the non iron-overloaded, bile duct-cannulated rodent model and in the iron-overloaded Cebus apella monkey, and the results are reported as iron clearing efficiency (Table 4). This number is generated by dividing the net iron clearance [total iron excretion (bile or stool plus urine) minus background] by the theoretical iron clearance and multiplying by 100. The theoretical iron clearance is based on a 2:1 metal complex stoichiometry for 4′-(HO)-DADMDFT, a 1:1 stoichiometry for DFO, and a 1:1 stoichiometry for BDU, as shown in the Job's plot (FIG. 5). Data are presented as the mean±the standard error of the mean. The drugs were administered both orally (po) and subcutaneously (sc) to the rodents and primates; the positive control was DFO.

[2] = tested on: iron; assay: Iron clearance in the iron-overloaded Cebus apella monkey; assay type: in vivo; settings: 300 μmol/kg sc, as sodium salt
Method: The monkeys were iron overloaded with intravenous iron dextran to provide about 500 mg iron per kg body weight. The serum transferrin iron saturation rose to between 70 and 80%. At least twenty half-lives, sixty days, elapsed before any of the animals were used in experiments evaluating iron-chelating agents.
Fecal and urine samples were collected at 24 hour intervals and processed. Briefly, the collections began 4 days prior to the administration of the test drug and continued for an additional 5 days after the drug was given. Iron concentrations were determined by flame atomic absorption spectroscopy.
as §1, §2

SMILES: O=C(O)[C@H]1CSC(c2ccc(O)cc2O)=N1 [4′-(HO)-DADMDFT, 4′-hydroxydesazadesmethyldesferrithiocin]
- % bile (of iron excreted), rodents ([1]; 300 μmol/kg po): 100%
- % urine (of iron excreted), rodents ([1]; 300 μmol/kg po): 0%
- efficiency in rodents (%) ([1]; 300 μmol/kg po): 2.9±2.8%
- % bile (of iron excreted), rodents ([1]; 300 μmol/kg sc): 90%
- % urine (of iron excreted), rodents ([1]; 300 μmol/kg sc): 10%
- efficiency in rodents (%) ([1]; 300 μmol/kg sc): 2.1±0.9%
- % stool (of iron excreted), monkeys [2]: 75%
- % urine (of iron excreted), monkeys [2]: 25%
- efficiency in monkeys (%) [2]: 5.3±1.7% and 5.3 ± 1.7^g %

Reference: patent US20050234113A1, “Antioxidant and radical scavenging activity of synthetic analogs of desferrithiocin” (University of Florida Research Foundation, Inc., priority 2002, published 2005)
